From patent publication US20250051375A1, “ANTI-HIV COMPOUNDS” (Gilead Sciences, Inc., priority 2023, published 2025)
Values after ≈ are worked out from the molar mass of the structure shown. Like-named read-outs stand apart in the source and are kept apart here.

Tests used:
[1] = Intestinal S9 Assay (dog GI S9); type: in vitro ADME; settings: dog, 1.0 mg/mL S9 protein, TRIS pH 7.4, read-out: Dog GI S9 T½
Experimental: (§1) Reagents. Stock solutions of test compounds in dimethyl sulfoxide (DMSO) having a final concentration of 10 mM were prepared and used in all experiments. Sekisui XenoTech (Kansas City, KS) provided pooled intestinal S9 fractions. All other chemicals were purchased from Sigma-Aldrich (St. Louis, MO) or VWR (West Chester, PA). Internal Standard/Quench (IS/Q) used to stop reactions was 100 nM labetalol in (by volume) formic acid (1%) and acetonitrile (99%).
(§2) Intestinal S9 Assay: For each test compound, an aliquot of the test compound was added to S9 stock diluted with TRIS buffer (100 mM TRIS, 1 mM ZnCl2, 1 mM MgCl2), pH 7.4, to obtain an incubation protein concentration of 1.0 mg/mL. The incubation was initiated by the addition of the substrate to the S9 reaction mixture to a final concentration of 2 μM. At 0, 10, 20, 30, 60 and 120 min, 25 μL aliquots of the reaction mixture were transferred to plates containing 225 μl of IS/Q solution. After quenching, the plates were centrifuged at 3000×g for 30 minutes. 150 μL aliquots of each supernatant were transferred to new plates and 150 μL water was added. Aliquots (10 μL) of the prepared samples were analyzed on a Thermo Q-Exactive mass spectrometer as described below.
(§3) Liquid Chromatography-Mass Spectrometry: Quantification of test compounds and control substrate was performed by analyte/internal standard peak area ratio (PAR) values measured on a Thermo Q-Exactive mass spectrometer coupled to a Dionex UltiMate 3000 HPLC with a Leap Technologies HTC PAL autosampler. The column used for analysis was a Thermo Scientific Hypersil GOLD (1.9 μm particle size, 50×2.1 mm). Mobile phase A consisted of 0.1% (v/v) formic acid in water. Mobile phase B consisted of 0.1% (v/v) formic acid in acetonitrile. Elution of analytes was achieved by a series of linear gradients varying the proportions of A and B. The mass spectrometer was calibrated on a weekly basis and mass tolerance of 5 ppm was used.
(§4) Data Analysis. Metabolic stabilities were determined by measuring the rates of disappearance of test compound and positive control substrate. Data (% of substrate remaining) were plotted on a semi-log scale and fitted using an exponential decline model:
(§5) where • Ct% of substrate remaining at time=t • C0% of substrate remaining at time=0 • t time • T½ half-life • The Half-life (T½) is determined by the following equation:
(§6) [formula] • Assuming a first-order reaction, the slope (k) is extrapolated from the aforementioned plotted data.

HIV-1 IIIB strain = experiment: MT-4 HIV Wild Type Virus Infection Assay (IIIB Virus); type: cell-based; settings: Human immunodeficiency virus 1, IIIB, MT4, 120 h, MT-4 cells acutely infected with HIV-1 IIIB, 5 day incubation, Cell-titer glo
In short: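 MT-4 cells at 2×10^6 cells/ml in RPMI/10% FBS were acutely infected with HIV-1 IIIB for 1 h at 37° C, diluted 25× and added to serially diluted compounds. After 5 days at 37° C, viability read by CellTiter-Glo luminescence; EC50 from dose-response curves.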

[2] = Intestinal S9 Assay (human GI S9); type: in vitro ADME; settings: 1.0 mg/mL S9 protein; for half-life at 2 μM: human, TRIS pH 7.4, read-out: Human GI S9 T½
Experimental: as §1, §2, §3, §4, §5, §6

[3] = molecular target: bovine intestinal alkaline phosphatase (Bos taurus (Bovine), UniProt P19111); experiment: BiALP: conversion by bovine intestinal alkaline phosphatase; type: in vitro ADME; settings: 2 μM substrate, 100 ng/mL iALP, Tris pH 7.8, 37° C., 60 minutes
bovine intestinal alkaline phosphatase, sequence (P19111 20-506): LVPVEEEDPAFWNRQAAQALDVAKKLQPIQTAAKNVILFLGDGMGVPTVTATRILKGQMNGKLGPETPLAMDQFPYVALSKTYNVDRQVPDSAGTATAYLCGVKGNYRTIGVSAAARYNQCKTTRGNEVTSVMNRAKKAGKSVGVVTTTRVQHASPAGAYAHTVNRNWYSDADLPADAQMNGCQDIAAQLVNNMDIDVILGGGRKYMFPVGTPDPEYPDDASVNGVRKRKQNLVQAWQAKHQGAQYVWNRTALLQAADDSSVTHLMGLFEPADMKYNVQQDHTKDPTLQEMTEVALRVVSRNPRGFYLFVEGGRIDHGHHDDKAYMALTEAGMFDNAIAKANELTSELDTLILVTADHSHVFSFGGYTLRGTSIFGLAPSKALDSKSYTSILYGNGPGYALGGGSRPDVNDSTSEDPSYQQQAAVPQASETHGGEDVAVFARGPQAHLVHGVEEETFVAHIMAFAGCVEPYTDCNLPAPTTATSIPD
In short: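 Compounds at 2 μM final were incubated 60 min at 37° C in 0.1 M Tris-HCl pH 7.8 with 1 mM MgCl2 and 1 mM ZnCl2, with or without 100 ng/mL iALP (0.01 units/mL). Samples were quenched with acetonitrile/formic acid containing labetalol. Conversion was quantified by LC-MS peak area ratios against a 2 μM product standard.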

PBS Stability Assay = type: physicochemical; settings: buffer, pH 7.4, 2 μM, phosphate buffered saline pH 7.4; read-out: PBS T½
In short: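 Test compound at 2 μM final was incubated in PBS, pH 7.4, and sampled at 0, 10, 20, 30, 60 and 120 min into acetonitrile/1% formic acid quench with labetalol internal standard. Remaining compound was quantified by LC-MS peak-area ratio, and half-life came from a first-order exponential fit.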

Solubility in FaSSIF = settings: 23 °C, pH 6.5, fassif, thermodynamic from solid
In short: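 Concentration measured by HPLC-UV after solid compound was dosed at 5 mg/mL into pH 6.5 fasted-state simulated intestinal fluid containing taurocholate and lecithin (4:1 molar) and vortexed.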

## COC(=O)N[C@H](C(=O)N[C@@H](Cc1ccc(C#Cc2cnc(N3CC4CCC(C3)N4C3COC3)nc2)cc1)[C@H](CN(Cc1c(F)cc(-c2ccn(C(F)F)n2)cc1F)NC(=O)[C@@H](NC(=O)OC)C(C)(C)C(F)(F)F)OC(=O)CC(C)(C)c1c(C)cc(C(=O)O)cc1OP(=O)(O)O)C(C)(C)C(F)(F)F [Example 3, 4-((5S,10S)-8-(4-(1-(difluoromethyl)-1H-pyrazol-3-yl)-2,6-difluorobenzyl)-14-methyl-10-((1S)-2-(4-((2-(8-(oxetan-3-yl)-3,8-diazabicyclo[3.2.1]octan-3-yl)pyrimidin-5-yl)ethynyl)phenyl)-1-((S)-4,4,4-trifluoro-2-((methoxycarbonyl)amino)-3,3-dimethylbutanamido)ethyl)-3,6,12-trioxo-5-(1,1,1-trifluoro-2-methylpropan-2-yl)-2,11-dioxa-4,7,8-triazapentadecan-14-yl)-3-methyl-5-(phosphonooxy)benzoic acid]
[1]
  half-life at 2 μM: 0.685 h
HIV-1 IIIB strain; read-out: EC50
  EC50: 96.6 nM
[2]
  half-life at 2 μM: 1.98 h
[3]
  [Compound]: 1197.7 nM
PBS Stability Assay
  half-life at 2 μM: 4.19 h

## COC(=O)N[C@H](C(=O)N[C@@H](Cc1ccc(C#Cc2cnc(N3CC4CCC(C3)N4C3COC3)nc2)cc1)[C@H](CN(Cc1c(F)cc(-c2ccn(C(F)F)n2)cc1F)NC(=O)[C@@H](NC(=O)OC)C(C)(C)C(F)(F)F)OC(=O)CC(C)(C)c1c(CC(=O)N[C@@H](CS(=O)(=O)O)C(=O)O)cc(C)cc1OP(=O)(O)O)C(C)(C)C(F)(F)F [Example 32]
Solubility in FaSSIF
  solubility at 2 h: 3400 µg/mL (≈ 2080 µM)
[1]
  half-life at 2 μM: 1 h
HIV-1 IIIB strain
  EC50: 137 nM
[2]
  half-life at 2 μM: 3.87 h
PBS Stability Assay
  half-life at 2 μM: 5.18 h

## C=C1C[C@@H](C(=O)O)N(C(=O)Cc2cc(C)cc(OP(=O)(O)O)c2C(C)(C)CC(=O)O[C@@H](CN(Cc2c(F)cc(-c3ccn(C(F)F)n3)cc2F)NC(=O)[C@@H](NC(=O)OC)C(C)(C)C(F)(F)F)[C@H](Cc2ccc(C#Cc3cnc(N4CC5CCC(C4)N5C4COC4)nc3)cc2)NC(=O)[C@@H](NC(=O)OC)C(C)(C)C(F)(F)F)C1 [Example 60]
Solubility in FaSSIF; FaSSIF (pH 6.5) solubility, FaSSIF pH 6.5, dose 5 mg/mL, 2-hour incubation, ambient temperature
  solubility: 3480 µg/mL (≈ 2190 µM)
[1]
  half-life at 2 μM: 5.81 h
HIV-1 IIIB strain; read-out: EC50
  EC50: 218 nM
[2]
  half-life at 2 μM: 12 h
[3]
  [Compound]: 1457.7 nM

## COC(=O)N[C@H](C(=O)N[C@@H](Cc1ccc(C#Cc2cnc(N3CC4CCC(C3)N4C3COC3)nc2)cc1)[C@H](CN(Cc1c(F)cc(-c2ccn(C(F)F)n2)cc1F)NC(=O)[C@@H](NC(=O)OC)C(C)(C)C(F)(F)F)OC(=O)CC(C)(C)c1c(CC(=O)N2CC(C)(C)C[C@H]2C(=O)O)cc(C)cc1OP(=O)(O)O)C(C)(C)C(F)(F)F [Example 61]
Solubility in FaSSIF
  solubility at 2 h: 2580 µg/mL (≈ 1600 µM)
[1]
  half-life at 2 μM: 11.2 h
HIV-1 IIIB strain
  EC50: 1890 nM
[2]
  half-life at 2 μM: 11.7 h
[3]
  [Compound]: 1611.1 nM

## COC(=O)N[C@H](C(=O)N[C@@H](Cc1ccc(C#Cc2cnc(N3CC4CCC(C3)N4C3COC3)nc2)cc1)[C@H](CN(Cc1c(F)cc(-c2ccn(C(F)F)n2)cc1F)NC(=O)[C@@H](NC(=O)OC)C(C)(C)C(F)(F)F)OC(=O)CC(C)(C)c1c(CC(=O)Nc2cc(C#N)cc(C(=O)O)c2)cc(C)cc1OP(=O)(O)O)C(C)(C)C(F)(F)F [Example 63]
Solubility in FaSSIF
  solubility at 2 h: 495 µg/mL (≈ 304 µM)
[1]
  half-life at 2 μM: 6.37 h
HIV-1 IIIB strain
  EC50: 244 nM
[2]; 2 μM, TRIS pH 7.4
  Human GI S9 T½: 13.2 h
[3]
  [Compound]: 1778.4 nM

## COC(=O)N[C@H](C(=O)N[C@@H](Cc1ccc(C#Cc2cnc(N3CC4CCC(C3)N4C3COC3)nc2)cc1)[C@H](CN(Cc1c(F)cc(-c2ccn(C(F)F)n2)cc1F)NC(=O)[C@@H](NC(=O)OC)C(C)(C)C(F)(F)F)OC(=O)CC(C)(C)c1c(CC(=O)N2CCC[C@H]2C(=O)O)cc(C)cc1OP(=O)(O)O)C(C)(C)C(F)(F)F [Example 79]
Solubility in FaSSIF
  solubility at 2 h: 2680 µg/mL (≈ 1690 µM)
[1]
  half-life at 2 μM: 9.38 h
HIV-1 IIIB strain
  EC50: 645 nM
[2]
  half-life at 2 μM: 10.2 h
[3]
  [Compound]: 2057.5 nM

## COC(=O)N[C@H](C(=O)N[C@@H](Cc1ccc(C#Cc2cnc(N3CC4CCC(C3)N4C3COC3)nc2)cc1)[C@H](CN(Cc1c(F)cc(-c2ccn(C(F)F)n2)cc1F)NC(=O)[C@@H](NC(=O)OC)C(C)(C)C(F)(F)F)OC(=O)CC(C)(C)c1c(CC(=O)Nc2cccc(S(=O)(=O)O)c2)cc(C)cc1OP(=O)(O)O)C(C)(C)C(F)(F)F [Example 105]
[1]
  half-life at 2 μM: 4.85 h
HIV-1 IIIB strain
  EC50: 217 nM
[2]
  half-life at 2 μM: 9.3 h
[3]
  [Compound]: 1626.1 nM
PBS Stability Assay
  half-life at 2 μM: 5.51 h

## COC(=O)N[C@H](C(=O)N[C@@H](Cc1ccc(C#Cc2cnc(N3CC4CCC(C3)N4C3COC3)nc2)cc1)[C@H](CN(Cc1c(F)cc(-c2ccn(C(F)F)n2)cc1F)NC(=O)[C@@H](NC(=O)OC)C(C)(C)C(F)(F)F)OC(=O)CC(C)(C)c1c(CC(=O)NC23CC4CC(C2)CC(C(=O)O)(C4)C3)cc(C)cc1OP(=O)(O)O)C(C)(C)C(F)(F)F [Example 108]
Solubility in FaSSIF
  solubility at 2 h: < 1000 µg/mL
[1]
  half-life at 2 μM: 4.46 h
HIV-1 IIIB strain
  EC50: 444 nM
[2]
  half-life at 2 μM: 7.21 h
[3]
  [Compound]: 2296.1 nM

## COC(=O)N[C@H](C(=O)N[C@@H](Cc1ccc(C#Cc2cnc(N3CC4CCC(C3)N4C3COC3)nc2)cc1)[C@H](CN(Cc1c(F)cc(-c2ccn(C(F)F)n2)cc1F)NC(=O)[C@@H](NC(=O)OC)C(C)(C)C(F)(F)F)OC(=O)CC(C)(C)c1c(CC(=O)Nc2cc(C(=O)O)cc(S(C)(=O)=O)c2)cc(C)cc1OP(=O)(O)O)C(C)(C)C(F)(F)F [Example 109]
Solubility in FaSSIF
  solubility at 2 h: < 1000 µg/mL
[1]
  half-life at 2 μM: 2.23 h
HIV-1 IIIB strain
  EC50: 90.5 nM
[2]
  half-life at 2 μM: 4.48 h
[3]
  [Compound]: 1951.1 nM

## COC(=O)N[C@H](C(=O)N[C@@H](Cc1ccc(C#Cc2cnc(N3CC4CCC(C3)N4C3COC3)nc2)cc1)[C@H](CN(Cc1c(F)cc(-c2ccn(C(F)F)n2)cc1F)NC(=O)[C@@H](NC(=O)OC)C(C)(C)C(F)(F)F)OC(=O)CC(C)(C)c1c(CC(=O)N2CC(C(=O)O)C2)cc(C)cc1OP(=O)(O)O)C(C)(C)C(F)(F)F [Example 110]
Solubility in FaSSIF
  solubility at 2 h: 4420 µg/mL (≈ 2820 µM)
[1]
  half-life at 2 μM: 2.81 h
HIV-1 IIIB strain
  EC50: 138 nM
[2]
  half-life at 2 μM: 8.51 h
[3]
  [Compound]: 1852.3 nM

## COC(=O)N[C@H](C(=O)N[C@@H](Cc1ccc(C#Cc2cnc(N3CC4CCC(C3)N4C3COC3)nc2)cc1)[C@H](CN(Cc1c(F)cc(-c2ccn(C(F)F)n2)cc1F)NC(=O)[C@@H](NC(=O)OC)C(C)(C)C(F)(F)F)OC(=O)CC(C)(C)c1c(CC(=O)N2CCC[C@@H]2C(=O)O)cc(C)cc1OP(=O)(O)O)C(C)(C)C(F)(F)F [Example 111]
Solubility in FaSSIF
  solubility at 2 h: 4760 µg/mL (≈ 3010 µM)
[1]
  half-life at 2 μM: 1.64 h
HIV-1 IIIB strain
  EC50: 452 nM
[2]
  half-life at 2 μM: 10.3 h
[3]
  [Compound]: 1803.5 nM

## COC(=O)N[C@H](C(=O)N[C@@H](Cc1ccc(C#Cc2cnc(N3CC4CCC(C3)N4C3COC3)nc2)cc1)[C@H](CN(Cc1c(F)cc(-c2ccn(C(F)F)n2)cc1F)NC(=O)[C@@H](NC(=O)OC)C(C)(C)C(F)(F)F)OC(=O)CC(C)(C)c1c(CC(=O)N2CCC(C(=O)O)CC2C(=O)O)cc(C)cc1OP(=O)(O)O)C(C)(C)C(F)(F)F (stereo partly drawn) [Example 113]
Solubility in FaSSIF
  solubility at 2 h: 4140 µg/mL (≈ 2530 µM)
[1]
  half-life at 2 μM: 3.38 h
HIV-1 IIIB strain
  EC50: 341 nM
[2]
  half-life at 2 μM: 6.56 h
[3]
  [Compound]: 1948 nM
